Assays:
Assay in all cases: Test F preemergence test
bermudagrass = format: in vivo, Cynodon dactylon; settings: scale 0 to 100
In short: (§1)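 Compounds in a non-phytotoxic solvent formulation with surfactant were applied before emergence after sowing, or, for sugarcane, also postemergence. Evaluation was visual, against controls, after 14 to 21 greenhouse days.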

Surinam grass = format: in vivo, Brachiaria decumbens; settings: scale 0 to 100
In short: as §1

large crabgrass = format: in vivo, Digitaria sanguinalis; settings: scale 0 to 100
In short: as §1

goosegrass = format: in vivo, Eleusine indica; settings: scale 0 to 100
In short: as §1

johnsongrass = format: in vivo, Sorghum halepense; settings: scale 0 to 100
In short: as §1

kochia = format: in vivo, Kochia scoparia; settings: scale 0 to 100; for Plant response rating, Kochia: Preemergence
In short: as §1

pitted morningglory = format: in vivo, Ipomoea lacunosa; settings: scale 0 to 100
In short: as §1

common ragweed = format: in vivo, Ambrosia elation; settings: scale 0 to 100
In short: as §1

mustard = format: in vivo, Brassica nigra; settings: scale 0 to 100
In short: as §1

guineagrass = format: in vivo, Panicum maximum; settings: scale 0 to 100
In short: as §1

dallisgrass = format: in vivo, Paspalum dilatatum; settings: scale 0 to 100
In short: as §1

barnyardgrass = format: in vivo, Echinochloa crus-galli; settings: scale 0 to 100
In short: as §1

prickly sida = format: in vivo, Sida spinosa; settings: scale 0 to 100
In short: as §1

Italian ryegrass = format: in vivo, Lolium multiflorum; settings: scale 0 to 100
In short: as §1

common purslane = format: in vivo, Portulaca oleracea; settings: scale 0 to 100
In short: as §1

broadleaf signalgrass = format: in vivo, Brachiaria platyphylla; settings: scale 0 to 100
In short: as §1

common groundsel = format: in vivo, Senecio vulgaris; settings: scale 0 to 100
In short: as §1

Virginia dayflower = format: in vivo, Commelina virginica; settings: scale 0 to 100
In short: as §1

naked crabgrass = format: in vivo, Digitaria nuda; settings: scale 0 to 100
In short: as §1

itchgrass = format: in vivo, Rottboellia cochinchinensis; settings: scale 0 to 100
In short: as §1

quackgrass = format: in vivo, Elytrigia repens; settings: scale 0 to 100
In short: as §1

In the case of `Cc1cc[n+]([O-])c(S(=O)(=O)C(C)c2c(C(F)(F)F)nn(C)c2OC(F)F)c1` (stereo not drawn) [Compound 11], the “Bermudagrass plant response rating” value (bermudagrass; 62 g ai/ha, Preemergence) is reported as 98, the “Bermudagrass plant response rating” value (bermudagrass; 125 g ai/ha, preemergence) is reported as 100 and the “Plant response rating, Bermudagrass” value (bermudagrass; Preemergence, 16 g ai/ha) is reported as 35. For the same molecule, the “Plant response rating, Bermudagrass” value (bermudagrass; Preemergence, 31 g ai/ha) was 70, the “Surinam Grass plant response rating” value (Surinam grass; 62 g ai/ha, Preemergence) was 100 and the “Surinam Grass plant response rating” value (Surinam grass; 125 g ai/ha, preemergence) was 100. The “Plant response rating, Surinam Grass” value (Surinam grass; Preemergence, 31 g ai/ha) was 98, the “Crabgrass, Large plant response rating” value (large crabgrass; 62 g ai/ha, Preemergence) was 98 and the “Crabgrass, Large plant response rating” value (large crabgrass; 125 g ai/ha, preemergence) was 100. The “Plant response rating, Crabgrass, Large” value (large crabgrass; Preemergence, 16 g ai/ha) was 60, the “Plant response rating, Crabgrass, Large” value (large crabgrass; Preemergence, 31 g ai/ha) was 80 and the “Goosegrass plant response rating” value (goosegrass; 62 g ai/ha, Preemergence) was 98. The “Goosegrass plant response rating” value (goosegrass; 125 g ai/ha, preemergence) was 100, the “Plant response rating, Goosegrass” value (goosegrass; Preemergence, 16 g ai/ha) was 70 and the “Plant response rating, Goosegrass” value (goosegrass; Preemergence, 31 g ai/ha) was 90. The “Johnsongrass plant response rating” value (johnsongrass; 62 g ai/ha, Preemergence) was 90, the “Johnsongrass plant response rating” value (johnsongrass; 125 g ai/ha, preemergence) was 95 and the “Plant response rating, Johnsongrass” value (johnsongrass; Preemergence, 16 g ai/ha) was 70. For the same molecule, the “Plant response rating, Johnsongrass” value (johnsongrass; Preemergence, 31 g ai/ha) was 70, the “Kochia plant response rating” value (kochia; 125 g ai/ha, preemergence) was 100 and the “Plant response rating, Kochia” value (kochia; 16 g ai/ha) was 0. For the same molecule, the “Plant response rating, Kochia” value (kochia; 31 g ai/ha) was 100, the “Morningglory plant response rating” value (pitted morningglory; 62 g ai/ha, Preemergence) was 90 and the “Morningglory plant response rating” value (pitted morningglory; 125 g ai/ha, preemergence) was 100. For the same molecule, the “Plant response rating, Morningglory” value (pitted morningglory; Preemergence, 16 g ai/ha) was 0, the “Plant response rating, Morningglory” value (pitted morningglory; Preemergence, 31 g ai/ha) was 30 and the “Ragweed plant response rating” value (common ragweed; 62 g ai/ha, Preemergence) was 75. The “Ragweed plant response rating” value (common ragweed; 125 g ai/ha, preemergence) was 100, the “Plant response rating, Ragweed” value (common ragweed; Preemergence, 16 g ai/ha) was 30 and the “Plant response rating, Ragweed” value (common ragweed; Preemergence, 31 g ai/ha) was 65. For the same molecule, the “Black Mustard plant response rating” value (mustard; 62 g ai/ha, Preemergence) was 100, the “Black Mustard plant response rating” value (mustard; 125 g ai/ha, preemergence) was 100 and the “Plant response rating, Black Mustard” value (mustard; Preemergence, 16 g ai/ha) was 35. For the same molecule, the “Plant response rating, Black Mustard” value (mustard; Preemergence, 31 g ai/ha) was 80, the “Guineagrass plant response rating” value (guineagrass; 62 g ai/ha, Preemergence) was 100 and the “Guineagrass plant response rating” value (guineagrass; 125 g ai/ha, preemergence) was 100. For the same molecule, the “Plant response rating, Guineagrass” value (guineagrass; Preemergence, 16 g ai/ha) was 70, the “Plant response rating, Guineagrass” value (guineagrass; Preemergence, 31 g ai/ha) was 90 and the “Dallisgrass plant response rating” value (dallisgrass; 62 g ai/ha, Preemergence) was 90. For the same molecule, the “Dallisgrass plant response rating” value (dallisgrass; 125 g ai/ha, preemergence) was 100, the “Plant response rating, Dallisgrass” value (dallisgrass; Preemergence, 16 g ai/ha) was 65 and the “Plant response rating, Dallisgrass” value (dallisgrass; Preemergence, 31 g ai/ha) was 80. For the same molecule, the “Barnyardgrass plant response rating” value (barnyardgrass; 62 g ai/ha, Preemergence) was 95, the “Barnyardgrass plant response rating” value (barnyardgrass; 125 g ai/ha, preemergence) was 98 and the “Plant response rating, Barnyardgrass” value (barnyardgrass; Preemergence, 16 g ai/ha) was 75. For the same molecule, the “Plant response rating, Barnyardgrass” value (barnyardgrass; Preemergence, 31 g ai/ha) was 95, the “Prickly Sida plant response rating” value (prickly sida; 62 g ai/ha, Preemergence) was 95 and the “Prickly Sida plant response rating” value (prickly sida; 125 g ai/ha, preemergence) was 100. The “Plant response rating, Prickly Sida” value (prickly sida; Preemergence, 16 g ai/ha) was 0, the “Plant response rating, Prickly Sida” value (prickly sida; Preemergence, 31 g ai/ha) was 70 and the “Ryegrass, Italian plant response rating” value (Italian ryegrass; 62 g ai/ha, Preemergence) was 75. The “Ryegrass, Italian plant response rating” value (Italian ryegrass; 125 g ai/ha, preemergence) was 95, the “Plant response rating, Ryegrass, Italian” value (Italian ryegrass; Preemergence, 16 g ai/ha) was 35 and the “Plant response rating, Ryegrass, Italian” value (Italian ryegrass; Preemergence, 31 g ai/ha) was 50. The “Purslane plant response rating” value (common purslane; 62 g ai/ha, Preemergence) was 70, the “Purslane plant response rating” value (common purslane; 125 g ai/ha, preemergence) was 80 and the “Plant response rating, Purslane” value (common purslane; Preemergence, 16 g ai/ha) was 40. For the same molecule, the “Plant response rating, Purslane” value (common purslane; Preemergence, 31 g ai/ha) was 60, the “Signalgrass plant response rating” value (broadleaf signalgrass; 62 g ai/ha, Preemergence) was 75 and the “Signalgrass plant response rating” value (broadleaf signalgrass; 125 g ai/ha, preemergence) was 75. The “Plant response rating, Signalgrass” value (broadleaf signalgrass; Preemergence, 31 g ai/ha) was 65, the “Groundsel plant response rating” value (common groundsel; 62 g ai/ha, Preemergence) was 95 and the “Groundsel plant response rating” value (common groundsel; 125 g ai/ha, preemergence) was 98. The “Plant response rating, Groundsel” value (common groundsel; Preemergence, 16 g ai/ha) was 0, the “Plant response rating, Groundsel” value (common groundsel; Preemergence, 31 g ai/ha) was 25 and the “Dayflower plant response rating” value (Virginia dayflower; 62 g ai/ha, Preemergence) was 100. For the same molecule, the “Dayflower plant response rating” value (Virginia dayflower; 125 g ai/ha, preemergence) was 100, the “Plant response rating, Dayflower” value (Virginia dayflower; Preemergence, 16 g ai/ha) was 0 and the “Plant response rating, Dayflower” value (Virginia dayflower; Preemergence, 31 g ai/ha) was 80. The “Crabgrass, Naked plant response rating” value (naked crabgrass; 62 g ai/ha, Preemergence) was 98, the “Crabgrass, Naked plant response rating” value (naked crabgrass; 125 g ai/ha, preemergence) was 100 and the “Plant response rating, Crabgrass, Naked” value (naked crabgrass; Preemergence, 16 g ai/ha) was 90. For the same molecule, the “Plant response rating, Crabgrass, Naked” value (naked crabgrass; Preemergence, 31 g ai/ha) was 98, the “Itchgrass plant response rating” value (itchgrass; 62 g ai/ha, Preemergence) was 70 and the “Itchgrass plant response rating” value (itchgrass; 125 g ai/ha, preemergence) was 95. The “Plant response rating, Itchgrass” value (itchgrass; Preemergence, 16 g ai/ha) was 0, the “Plant response rating, Itchgrass” value (itchgrass; Preemergence, 31 g ai/ha) was 40 and the “Quackgrass plant response rating” value (quackgrass; 62 g ai/ha, Preemergence) was 75. For the same molecule, the “Quackgrass plant response rating” value (quackgrass; 125 g ai/ha, preemergence) was 90, the “Plant response rating, Quackgrass” value (quackgrass; Preemergence, 16 g ai/ha) was 0 and the “Plant response rating, Quackgrass” value (quackgrass; Preemergence, 31 g ai/ha) was 60.

Source: patent publication US20100298141A1, “SUBSTITUTED PYRIDINE N-OXIDE HERBICIDES” (E. I. DU PONT DE NEMOURS AND COMPANY, priority 2007, published 2010)
